Results published in patent publication US20130252832A1, “KRAS Variant and Tumor Biology” (Yale University, priority 2012, published 2013).

Assays:
wild-type 3′UTR reporter = assay: Luciferase 3'UTR reporter expression following irinotecan exposure; format: cell-based
Text: (§1) The disclosure provides a method of predicting the response of a cancer cell to the combination of a chemotherapy and monoclonal antibody therapy, including detecting a mutation in let-7 complementary site LCS6 of human KRAS in a patient sample, wherein the mutation is a SNP comprising a uracil (U) or thymine (T) to guanine (G) transition at position 4 of LCS6, and wherein the presence of the mutation indicates a resistance to the combination. In certain embodiments of this method, the cancer cell is a colorectal cancer (CRC) cell. The cancer cell may be evaluated in vitro or ex vivo. […] The chemotherapy may be a cytotoxic agent. A non-limiting example of the cytotoxic agent is irinotecan.
(§2) FIG. 24B is a graph depicting the fold repression (expressed as KRAS variant/KRAS wild type) as a function of irinotecan concentration, when cancer cells are treated with irinotecan.

[1] = tested on: KRAS-variant 3′UTR reporter; assay: as above; format: cell-based
Text: as §1, §2

CCc1c2c(nc3ccc(OC(=O)N4CCC(N5CCCCC5)CC4)cc13)-c1cc3c(c(=O)n1C2)COC(=O)[C@]3(O)CC [irinotecan]
Reporter expression following irinotecan exposure (wild-type 3′UTR reporter): no change | Reporter expression following irinotecan exposure [1]: statistically-significant increase
